Results published in ChEMBL document CHEMBL4373744, “Modifying the lipophilic part of phenylthiazole antibiotics to control their drug-likeness” (Eur J Med Chem, 2020).
In brackets after ≈: the same amount, converted by molar mass.

Legend:
Escherichia coli [1] = test: Antimicrobial activity against Escherichia coli JW55031 harboring deltatolC mutant by broth liquid microdilution method; type: functional
Escherichia coli [2] = test: Antimicrobial activity against Escherichia coli BW25113 by broth liquid microdilution method; type: functional
Staphylococcus aureus = test: microbe, parasite or virus in culture; conditions: NRS384
Description: Antimicrobial activity against methicillin-resistant Staphylococcus aureus NRS384 by broth liquid microdilution method

Row | Structure (SMILES) | MIC (Escherichia coli [1]) [µg/mL] | MIC (Escherichia coli [2]) [µg/mL] | MIC (Staphylococcus aureus) [µg/mL]
1 | C/C(=N\NC(=N)N)c1sc(-c2ccc(OCCCN3CCSCC3)cc2)nc1C | 64 (≈ 148 µM) | > 64 | 32 (≈ 74 µM)
2 | C/C(=N\NC(=N)N)c1sc(-c2ccc(C#CCCN3CCCCCC3)cc2)nc1C | 64 (≈ 151 µM) | > 64 | 8 (≈ 18.9 µM)
3 | C/C(=N\NC(=N)N)c1sc(-c2ccc(C#CCCN3CCSCC3)cc2)nc1C | 16 (≈ 37.5 µM) | > 64 | 32 (≈ 75 µM)
4 | C/C(=N\NC(=N)N)c1sc(-c2ccc(OCCCN3CCSC3)cc2)nc1C | 32 (≈ 76.4 µM) | > 64 | 16 (≈ 38.2 µM)
5 | C/C(=N\NC(=N)N)c1sc(-c2ccc(C#CCCN3CCOCC3)cc2)nc1C | 64 (≈ 156 µM) | > 64 | 32 (≈ 77.9 µM)
6 | C/C(=N\NC(=N)N)c1sc(-c2ccc(OCCCN3CCCCCC3)cc2)nc1C | > 64 | > 64 | 64 (≈ 149 µM)
7 | C/C(=N\NC(=N)N)c1sc(-c2ccc(OCCCCN3CCCCC3C)cc2)nc1C (centres undefined) | > 64 | > 64 | > 64
8 | C/C(=N\NC(=N)N)c1sc(-c2ccc(OCCCN3CCC(C)CC3)cc2)nc1C | > 64 | > 64 | > 64
9 | C/C(=N\NC(=N)N)c1sc(-c2ccc(OCCCCCn3ccnc3)cc2)nc1C | > 64 | > 64 | > 64
10 | C/C(=N\NC(=N)N)c1sc(-c2ccc(OCCCCCN3CCCC(C)C3)cc2)nc1C (centres undefined) | 64 (≈ 140 µM) | > 64 | 32 (≈ 70.1 µM)
11 | C/C(=N\NC(=N)N)c1sc(-c2ccc(OCCCCCN3CCC3)cc2)nc1C | 64 (≈ 154 µM) | > 64 | 32 (≈ 77.2 µM)
12 | C/C(=N\NC(=N)N)c1sc(-c2ccc(OCCCN3CCCCC3)cc2)nc1C | 64 (≈ 154 µM) | > 64 | 32 (≈ 77.2 µM)
13 | C/C(=N\NC(=N)N)c1sc(-c2ccc(C#CCCN3CCCC3)cc2)nc1C | > 64 | > 64 | 16 (≈ 40.6 µM)
